In one experiment the test system is M-NFS-60. The experiment in a line: Cancer cell proliferation inhibition, CCK-8, 72 hours. Type of experiment: cell-based. The method, boiled down: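 Cells were grown in RPMI with 10% FBS, 0.05 mM 2-mercaptoethanol and human M-CSF, and seeded at 20000 cells/well. Compounds were added from a 3-fold DMSO dilution series topping at 1968 nM (dilution-plate concentration; 11 points including DMSO control). After 72 h at 37 °C, CCK-8 was added for 2 h and OD450 read.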

For another experiment, the system named is FYN (MCP-1). The experiment in a line: Cancer cell proliferation inhibition, MTS assay, 72 hours. Type of experiment: cell-based. The procedure, abridged:
(§1)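 Cells seeded at 3,000 cells/well in line-specific medium and grown 24 h at 37° C, 5% CO2, then exposed 72 h to serially diluted compound from 50 μM (0.05% DMSO). MTS/PMS added for 2 h at 37° C; OD450 read; IC50 from inhibition versus solvent control, three data sets.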

The subject of another experiment is Ret^Parental (Ba/F3). Described as above. To be noted: Mus musculus, BaF3. Type of experiment: cell-based. The method, boiled down: as §1
The subject of the next experiment is Huh7. Described as above. The conditions noted are these: Homo sapiens, Huh-7. Type of experiment: cell-based. The procedure, abridged: as §1
In another experiment the test system is FYN (FN). Described as above. Type of experiment: cell-based. The procedure, abridged:
as §1

The test system of a further experiment is SK-MEL-28. The experiment is described as above. The format is cell-based. To be noted: Homo sapiens. The method, boiled down:
as §1

A further experiment has as its target T1, Ret^V804M (Ba/F3) (Homo sapiens, UniProt P07949, V804M, cells depend on it, form not given).
T1 construct: candidates are KIF5B, CCDC6, TEL (ETV6), or none (full-length RET)
Described as above. The format is cell-based. To be noted: read-out: Ret^V804M (Ba/F3) IC50. The method, boiled down: as §1

Another experiment deals with T2, Ret^wt (Ba/F3) (Homo sapiens, UniProt P07949).
T2 construct: candidates are KIF5B, CCDC6, TEL (ETV6), or none (full-length RET)
The description is as above. The conditions noted are these: read-out: Ret^wt (Ba/F3) IC50. Type of experiment: cell-based. The procedure, abridged: as §1

Experiment [1] has as its target T3, scanMAX Kinase assay panel (Homo sapiens, UniProt P21802).
T3 construct: purchased DiscoverX
The experiment in a line: Kinase selectivity, scanMAX Kinase assay panel (DiscoverX), % control at 1 uM. The conditions noted are these: FGFR2; 1 uM; read-out: Percent Control (%). The format is binding. As for the experimental part:
(§2) The following experiment was performed to evaluate the inhibitory activity of the compound of the present invention on more enzymes.
(§3) Particularly, among the compounds of the present invention, the compounds of Example 1, Example 12 and Example 78 were selected and assigned to DiscoverX to measure the kinase selectivity. The experiment was performed by using scanMAX™ Kinase assay panel.
(§4) At this time, the concentration of the drug to be treated to the enzyme was adjusted to 1 uM in DMSO, and the control percentage (% control) was determined according to the following Equation 1. [Example Compound−Positive Control/Negative Control−Positive Control]×100 [Equation 1]
(§5) The enzyme selectivity of the compound of the present invention was judged to be active for the enzyme if the % control was <35 (i.e. less than 35%) for each enzyme.

In experiment [2] the target is T4, scanMAX Kinase assay panel (Homo sapiens, UniProt P45985).
T4 construct: purchased DiscoverX
T4 sequence (P45985 1-399): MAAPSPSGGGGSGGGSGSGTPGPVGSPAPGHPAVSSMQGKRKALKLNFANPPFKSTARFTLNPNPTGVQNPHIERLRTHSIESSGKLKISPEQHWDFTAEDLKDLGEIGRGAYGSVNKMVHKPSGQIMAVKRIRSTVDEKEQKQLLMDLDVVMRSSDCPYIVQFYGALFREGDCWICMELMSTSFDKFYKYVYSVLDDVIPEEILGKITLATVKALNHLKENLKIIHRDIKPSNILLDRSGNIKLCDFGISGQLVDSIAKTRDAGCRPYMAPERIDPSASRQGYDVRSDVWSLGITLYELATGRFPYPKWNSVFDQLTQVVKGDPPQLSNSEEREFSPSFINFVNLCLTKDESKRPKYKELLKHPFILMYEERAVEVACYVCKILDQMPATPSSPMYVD
The description is as above. To be noted: MEK4; 1 uM; read-out: Percent Control (%). The format is binding. As for the experimental part: as §2, §3, §4, §5

The subject of a further experiment is RET (LC2/ad-CDC6). Put plainly: Cancer cell proliferation inhibition, MTS assay, 72 hours. The conditions noted are these: 72 h. The format is cell-based. The procedure, abridged:
as §1
(Tetrazolium dyes change colour on reduction, which living cells bring about.)

From US10870647B2, “Imidazopyridine derivative, method for preparing same, and pharmaceutical composition containing same as active ingredient for preventing or treating cancer” (DAEGU-GYEONGBUK MEDICAL INNOVATION FOUNDATION, priority 2016, dated 2020) come the findings set out here.

T1 sequence (P07949 whole entry V804M, form open): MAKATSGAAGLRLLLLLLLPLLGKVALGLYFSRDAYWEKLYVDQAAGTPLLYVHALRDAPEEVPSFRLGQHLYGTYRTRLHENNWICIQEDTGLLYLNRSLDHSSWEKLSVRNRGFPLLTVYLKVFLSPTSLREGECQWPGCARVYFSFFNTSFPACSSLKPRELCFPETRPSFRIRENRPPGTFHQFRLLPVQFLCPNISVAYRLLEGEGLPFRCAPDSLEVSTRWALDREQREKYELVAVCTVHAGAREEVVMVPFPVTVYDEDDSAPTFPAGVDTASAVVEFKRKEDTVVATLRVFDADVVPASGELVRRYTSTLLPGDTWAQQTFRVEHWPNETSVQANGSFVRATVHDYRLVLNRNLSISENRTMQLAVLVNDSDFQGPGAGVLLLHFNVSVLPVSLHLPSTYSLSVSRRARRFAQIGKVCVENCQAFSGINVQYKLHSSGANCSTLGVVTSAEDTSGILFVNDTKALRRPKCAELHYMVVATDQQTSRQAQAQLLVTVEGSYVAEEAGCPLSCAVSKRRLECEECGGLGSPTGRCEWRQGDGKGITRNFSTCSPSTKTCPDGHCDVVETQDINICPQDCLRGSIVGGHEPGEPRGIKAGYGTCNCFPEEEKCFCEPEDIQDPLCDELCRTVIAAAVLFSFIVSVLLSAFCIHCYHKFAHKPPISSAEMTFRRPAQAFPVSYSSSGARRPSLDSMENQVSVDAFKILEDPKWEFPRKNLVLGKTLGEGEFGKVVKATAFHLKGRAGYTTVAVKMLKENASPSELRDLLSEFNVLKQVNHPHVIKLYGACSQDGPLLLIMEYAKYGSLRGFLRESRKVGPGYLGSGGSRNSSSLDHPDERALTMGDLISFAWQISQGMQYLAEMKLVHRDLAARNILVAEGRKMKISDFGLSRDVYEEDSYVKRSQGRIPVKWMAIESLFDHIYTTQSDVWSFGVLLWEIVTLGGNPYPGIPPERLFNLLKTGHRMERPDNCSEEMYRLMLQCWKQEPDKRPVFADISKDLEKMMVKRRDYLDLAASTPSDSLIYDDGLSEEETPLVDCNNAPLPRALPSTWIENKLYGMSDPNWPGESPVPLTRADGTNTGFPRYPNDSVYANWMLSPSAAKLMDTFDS
T2 sequence (P07949 whole entry, change not shown): as the sequence (P07949 whole entry V804M, form open) above, with M804V counted along it
T3 sequence (P21802 22-821): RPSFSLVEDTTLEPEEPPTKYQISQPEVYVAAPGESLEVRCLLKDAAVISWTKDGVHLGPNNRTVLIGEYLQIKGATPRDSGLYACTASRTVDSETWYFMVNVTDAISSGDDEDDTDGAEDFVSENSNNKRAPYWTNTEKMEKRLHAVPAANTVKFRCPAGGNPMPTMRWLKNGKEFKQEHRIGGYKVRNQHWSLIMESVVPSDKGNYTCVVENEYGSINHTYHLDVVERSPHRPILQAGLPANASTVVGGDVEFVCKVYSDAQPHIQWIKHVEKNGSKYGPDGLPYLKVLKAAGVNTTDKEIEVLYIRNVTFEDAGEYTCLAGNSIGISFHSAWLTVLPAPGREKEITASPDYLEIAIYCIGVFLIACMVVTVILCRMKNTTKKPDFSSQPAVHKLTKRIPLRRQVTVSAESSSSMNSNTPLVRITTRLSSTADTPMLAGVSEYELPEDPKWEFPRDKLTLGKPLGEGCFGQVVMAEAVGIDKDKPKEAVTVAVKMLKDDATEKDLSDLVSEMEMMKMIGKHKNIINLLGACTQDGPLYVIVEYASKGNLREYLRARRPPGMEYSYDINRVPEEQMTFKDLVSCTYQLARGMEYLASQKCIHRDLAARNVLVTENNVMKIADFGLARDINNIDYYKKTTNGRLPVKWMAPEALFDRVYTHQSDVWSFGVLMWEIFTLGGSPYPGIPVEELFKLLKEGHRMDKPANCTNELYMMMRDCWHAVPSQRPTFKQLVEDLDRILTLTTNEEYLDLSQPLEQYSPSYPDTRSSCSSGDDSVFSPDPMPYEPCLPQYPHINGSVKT

Regarding `CCN1CCN(Cc2ccc(NC(=O)c3ccc(C)c(C#Cc4cnc5c(Nc6cnn(C)c6)cccn45)c3)cc2C(F)(F)F)CC1` [Example 8, N-(4-((4-ethylpiperazin-1-yl)methyl)-3-(trifluoromethyl)phenyl)-4-methyl-3-((8-((1-methyl-1H-pyrazol-4-yl)amino)imidazo[1,2-a]pyridin-3-yl)ethynyl)benzamide], the IC50 (as a rule, the concentration that inhibits the measured activity by half) was 34.1 nM in the experiment with M-NFS-60; < 1000 nM with FYN (MCP-1); 1320 nM in the experiment with Ret^Parental (Ba/F3); 255 nM in the experiment on Huh7; < 1000 nM in the experiment with FYN (FN); 586 nM with SK-MEL-28. Besides, the GI50 came to 10 nM on Ret^V804M (Ba/F3) and 2 nM on Ret^wt (Ba/F3).

As to `Cc1ccc(C(=O)Nc2ccc(CN3CCN(C)CC3)c(C(F)(F)F)c2)cc1C#Cc1cnc2c(Nc3cnn(C)c3)cccn12` [Example 1, 4-methyl-3-((8-((1-methyl-1H-pyrazol-4-yl)amino)imidazo[1,2-a]pyridin-3-yl)ethynyl)-N-(4-((4-methylpiperazin-1-yl)methyl)-3-(trifluoromethyl)phenyl)benzamide], the concentration for half-maximal inhibition (IC50) in the experiment with M-NFS-60 is 64.6 nM; in the experiment with FYN (MCP-1), 730 nM; in the experiment with Ret^Parental (Ba/F3) it was 1210 nM; with Huh7, 65 nM; in the experiment with SK-MEL-28 it was 334 nM; in the experiment on RET (LC2/ad-CDC6), < 10 nM. The remaining binding at 1 µM amounted to 2% in experiment [1] and 98% in experiment [2]. Also, the GI50 came out at 5 nM at Ret^V804M (Ba/F3) and 3 nM at Ret^wt (Ba/F3).

As to `Cc1cn(-c2cc(NC(=O)c3ccc(C)c(C#Cc4cnc5c(Nc6cnn(C)c6)cccn45)c3)cc(C(F)(F)F)c2)cn1` [Example 12, 4-methyl-N-(3-(4-methyl-1H-imidazol-1-yl)-5-(trifluoromethyl)phenyl)-3-((8-((1-methyl-1H-pyrazol-4-yl)amino)imidazo[1,2-a]pyridin-3-yl)ethynyl)benzamide], the half-inhibitory concentration (IC50) in the experiment with M-NFS-60 is 247 nM; in the experiment with FYN (MCP-1) it was < 100 nM; with Huh7, 147 nM; in the experiment with FYN (FN) it was < 100 nM; with SK-MEL-28, > 10000 nM; with RET (LC2/ad-CDC6) it was < 100 nM. The remaining binding at 1 µM in experiment [1] amounted to 11%; in experiment [2], 100%. Moreover, the results for the GI50 at Ret^V804M (Ba/F3) and at Ret^wt (Ba/F3) were 54 nM and 17 nM, respectively.

Consider `Cc1ccc(C(=O)Nc2cccc(C(F)(F)F)c2)cc1C#Cc1cnc2c(Nc3cnn(C4CCNCC4)c3)cccn12` [Example 11, 4-methyl-3-((8-((1-(piperidin-4-yl)-1H-pyrazol-4-yl)amino)imidazo[1,2-a]pyridin-3-yl)ethynyl)-N-(3-(trifluoromethyl)phenyl)benzamide], for which the IC50 was 30.8 nM in the experiment with M-NFS-60; < 100 nM with FYN (MCP-1); 2400 nM with Ret^Parental (Ba/F3); 1220 nM with Huh7; < 100 nM in the experiment on FYN (FN); 1460 nM with SK-MEL-28. Also, the values for the GI50 at Ret^V804M (Ba/F3) and on Ret^wt (Ba/F3) were 98 nM and 5 nM, respectively.

Turning to `Cc1ccc(NC(=O)C2(C(=O)Nc3ccc(F)cc3)CC2)cc1C#Cc1cnc2c(Nc3cnn(C(C)C)c3)cccn12` [Example 78], the IC50 was 672 nM with M-NFS-60, 5120 nM with Huh7, 4550 nM in the experiment on SK-MEL-28 and < 10000 nM in the experiment with RET (LC2/ad-CDC6). Also, the remaining binding at 1 µM in experiment [1] amounted to 100%; in experiment [2], 97%.
